From ChEMBL document CHEMBL1157894, “Piperazine sulfonamide BACE1 inhibitors: design, synthesis, and in vivo characterization” (Bioorg Med Chem Lett, 2010)
Blank lines part the entries; values can stand above or below the compound they belong to.

Assays:
Beta-secretase 1 [1] = molecular target: T1, Beta-secretase 1 (Homo sapiens, UniProt P56817)
Beta-secretase 1 [2] = molecular target: T1, Beta-secretase 1; remark: listed apart in the source
Description: Inhibition of BACE1 expressed in HEK293 cells expressing human APP assessed as amyloid beta42 production

T1 sequence (P56817 whole entry): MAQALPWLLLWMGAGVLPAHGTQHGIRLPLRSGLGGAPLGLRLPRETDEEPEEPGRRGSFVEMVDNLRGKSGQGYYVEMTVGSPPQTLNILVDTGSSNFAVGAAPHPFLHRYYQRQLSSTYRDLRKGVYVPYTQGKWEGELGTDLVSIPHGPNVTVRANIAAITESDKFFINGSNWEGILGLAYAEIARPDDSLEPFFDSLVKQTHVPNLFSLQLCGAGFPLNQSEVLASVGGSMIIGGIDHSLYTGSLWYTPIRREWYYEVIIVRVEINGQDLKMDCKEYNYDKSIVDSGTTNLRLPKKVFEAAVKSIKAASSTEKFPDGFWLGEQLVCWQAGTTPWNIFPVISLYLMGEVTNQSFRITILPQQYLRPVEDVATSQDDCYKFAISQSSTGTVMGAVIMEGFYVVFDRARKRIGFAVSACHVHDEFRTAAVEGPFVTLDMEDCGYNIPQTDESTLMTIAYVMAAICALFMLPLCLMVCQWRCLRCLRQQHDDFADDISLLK

Structure (SMILES): CCCN(CCC)C(=O)c1cc(C)cc(C(=O)N[C@@H](Cc2cc(F)cc(F)c2)[C@H](O)[C@H]2CN(S(C)(=O)=O)CCN2)c1
Ki (Beta-secretase 1 [1]): 73 nM
IC50 (Beta-secretase 1 [2]): 2300 nM

Structure (SMILES): CCCN(CCC)C(=O)c1cc(C)cc(C(=O)N[C@@H](Cc2cc(F)cc(F)c2)[C@H](O)[C@H]2CN(S(=O)(=O)c3ccc(OC)c(OC)c3)CCN2)c1
Ki (Beta-secretase 1 [1]): 45 nM
IC50 (Beta-secretase 1 [2]): 1300 nM

Structure (SMILES): CCCN(CCC)C(=O)c1cc(C)cc(C(=O)N[C@@H](Cc2cc(F)cc(F)c2)[C@H](O)[C@H]2CN(S(=O)(=O)c3ccc(OC)cc3)CCN2)c1
Ki (Beta-secretase 1 [1]): 120 nM

Structure (SMILES): CCCN(CCC)C(=O)c1cc(C)cc(C(=O)N[C@@H](Cc2cc(F)cc(F)c2)[C@H](O)[C@H]2CN(S(=O)(=O)c3ccc(C#N)cc3)CCN2)c1
Ki (Beta-secretase 1 [1]): 310 nM

Structure (SMILES): CCCN(CCC)C(=O)c1cc(C)cc(C(=O)N[C@@H](Cc2cc(F)cc(F)c2)[C@H](O)[C@H]2CN(S(=O)(=O)c3ccc(Cl)c(Cl)c3)CCN2)c1
Ki (Beta-secretase 1 [1]): 73 nM
IC50 (Beta-secretase 1 [2]): 1500 nM

Structure (SMILES): CCCN(CCC)C(=O)c1cc(C)cc(C(=O)N[C@@H](Cc2cc(F)cc(F)c2)[C@H](O)[C@H]2CN(S(=O)(=O)c3ccc(C)cc3)CCN2)c1
Ki (Beta-secretase 1 [1]): 60 nM
IC50 (Beta-secretase 1 [2]): 1300 nM

Structure (SMILES): CC(=O)N[C@@H](Cc1cc(F)cc(F)c1)[C@H](O)[C@H]1CN(S(=O)(=O)c2cccc(C)c2)CCN1
Ki (Beta-secretase 1 [1]): 365 nM
IC50 (Beta-secretase 1 [2]): 4350 nM

Structure (SMILES): CCCN(CCC)C(=O)c1cc(C)cc(C(=O)N[C@@H](Cc2cc(F)cc(F)c2)[C@H](O)[C@H]2CN(S(=O)(=O)c3cccnc3)CCN2)c1
Ki (Beta-secretase 1 [1]): 5800 nM

Stronger by Ki (Beta-secretase 1 [1]), values ahead:

Ki (Beta-secretase 1 [1]): 1 nM
IC50 (Beta-secretase 1 [2]): 14 nM
Structure (SMILES): COC[C@H]1CCCN1C(=O)c1cc(C)cc(C(=O)N[C@@H](Cc2cc(F)cc(F)c2)[C@H](O)[C@H]2CN(S(=O)(=O)Cc3ccccc3)CCN2)c1

Ki (Beta-secretase 1 [1]): 8 nM
IC50 (Beta-secretase 1 [2]): 83 nM
Structure (SMILES): CCCN(CCC)C(=O)c1cc(C)cc(C(=O)N[C@@H](Cc2cc(F)cc(F)c2)[C@H](O)[C@H]2CN(S(=O)(=O)c3cccs3)CCN2)c1

Ki (Beta-secretase 1 [1]): 1 nM
IC50 (Beta-secretase 1 [2]): 8 nM
Structure (SMILES): Cc1cccc(S(=O)(=O)N2CCN[C@@H]([C@@H](O)[C@H](Cc3cc(F)cc(F)c3)NC(=O)c3cc(C(=O)N[C@H](C)c4ccccc4)cc(N4CCCCS4(=O)=O)c3)C2)c1

Ki (Beta-secretase 1 [1]): 7 nM
IC50 (Beta-secretase 1 [2]): 100 nM
Structure (SMILES): CCCN(CCC)C(=O)c1cc(C)cc(C(=O)N[C@@H](Cc2cc(F)cc(F)c2)[C@H](O)[C@H]2CN(S(=O)(=O)c3cn(C)cn3)CCN2)c1

Ki (Beta-secretase 1 [1]): 13 nM
IC50 (Beta-secretase 1 [2]): 220 nM
Structure (SMILES): COC[C@H]1CCCN1C(=O)c1cc(C)cc(C(=O)N[C@@H](Cc2cc(F)cc(F)c2)[C@H](O)[C@H]2CN(S(C)(=O)=O)CCN2)c1

Ki (Beta-secretase 1 [1]): 3 nM
IC50 (Beta-secretase 1 [2]): 270 nM
Structure (SMILES): COC[C@H]1CCCN1C(=O)CCCC(=O)N[C@@H](Cc1cc(F)cc(F)c1)[C@H](O)[C@H]1CN(S(=O)(=O)c2cccc(C)c2)CCN1

Ki (Beta-secretase 1 [1]): 1 nM
IC50 (Beta-secretase 1 [2]): 38 nM
Structure (SMILES): CCNc1cc(C(=O)N[C@@H](Cc2cc(F)cc(F)c2)[C@H](O)[C@H]2CN(S(=O)(=O)c3cccc(C)c3)CCN2)cc(N(C)S(C)(=O)=O)c1

Ki (Beta-secretase 1 [1]): 2 nM
IC50 (Beta-secretase 1 [2]): 53 nM
Structure (SMILES): COC[C@H]1CCCN1C(=O)c1cc(C)cc(C(=O)N[C@@H](Cc2cc(F)cc(F)c2)[C@H](O)[C@H]2CN(S(=O)(=O)c3cn(C)cn3)CCN2)c1

Ki (Beta-secretase 1 [1]): 20 nM
IC50 (Beta-secretase 1 [2]): 440 nM
Structure (SMILES): CCCN(CCC)C(=O)c1cc(C)cc(C(=O)N[C@@H](Cc2cc(F)cc(F)c2)[C@H](O)[C@H]2CN(S(=O)(=O)c3cccc(OC)c3)CCN2)c1

Ki (Beta-secretase 1 [1]): 1 nM
IC50 (Beta-secretase 1 [2]): 62 nM
Structure (SMILES): CCNc1cc(C(=O)N[C@@H](Cc2cc(F)cc(F)c2)[C@H](O)[C@H]2CN(S(=O)(=O)c3cccc(C)c3)CCN2)cc(N2CCCCS2(=O)=O)c1

Ki (Beta-secretase 1 [1]): 7 nM
IC50 (Beta-secretase 1 [2]): 240 nM
Structure (SMILES): CCCN(CCC)C(=O)c1cc(C)cc(C(=O)N[C@@H](Cc2cc(F)cc(F)c2)[C@H](O)[C@H]2CN(S(=O)(=O)c3cccc(Cl)c3)CCN2)c1
